ChEMBL document CHEMBL4665917, “Optimization of Versatile Oxindoles as Selective PI3Kδ Inhibitors” (ACS Med Chem Lett, 2020)
Values after ≈ are worked out from the molar mass of the structure shown.

Key:
[1] = Unbound volume of distribution in Beagle dog at 0.5 mg/kg, iv or 1 mg/kg, po; assay type: ADME, organism-based, Canis lupus familiaris; settings: in vivo
[2] = Half life in Wistar-Han rat at 0.5 mg/kg, iv or 1 mg/kg, po; assay type: ADME, organism-based; settings: in vivo
[3] = Volume of distribution in Beagle dog at 0.5 mg/kg, iv or 1 mg/kg, po; assay type: ADME, organism-based, Canis lupus familiaris; settings: in vivo
[4] = Unbound volume of distribution in Wistar-Han rat at 0.5 mg/kg, iv or 1 mg/kg, po; assay type: ADME, organism-based; settings: in vivo
[5] = Clearance in Beagle dog at 0.5 mg/kg, iv or 1 mg/kg, po; assay type: ADME, organism-based, Canis lupus familiaris; settings: in vivo
[6] = Half life in Beagle dog at 0.5 mg/kg, iv or 1 mg/kg, po; assay type: ADME, organism-based, Canis lupus familiaris; settings: in vivo
[7] = Volume of distribution in Wistar-Han rat at 0.5 mg/kg, iv or 1 mg/kg, po; assay type: ADME, organism-based; settings: in vivo
[8] = Intrinsic clearance in Wistar-Han rat at 0.5 mg/kg, iv or 1 mg/kg, po; assay type: ADME, organism-based; settings: in vivo
[9] = Intrinsic clearance in Beagle dog at 0.5 mg/kg, iv or 1 mg/kg, po; assay type: ADME, organism-based, Canis lupus familiaris; settings: in vivo
[10] = cells; settings: Homo sapiens, HeLa
[11] = Solubility of the compound at pH 7; assay type: physicochemical; settings: buffer
[12] = Clearance in Wistar-Han rat at 0.5 mg/kg, iv or 1 mg/kg, po; assay type: ADME, organism-based; settings: in vivo
[13] = species: Homo sapiens; test: Selectivity index, ratio of IC50 for Inhibition of N-terminal His6 tagged recombinant full-length human PI3Kalpha/human recombinant full length p85alpha expressed in baculovirus infected Sf21 cells to IC50 for Inhibition of N-terminal His6 tagged recombinant full-length human PI3Kdelta/human recombinant full length p85alpha expressed in baculovirus infected Sf21 cells
[14] = Oral bioavailability in Wistar-Han rat at 1 mg/kg; assay type: ADME, organism-based; settings: in vivo
[15] = Apparent permeability in pig LLC-PK1 cells; assay type: ADME, cell-based, Sus scrofa
[16] = Oral bioavailability in Beagle dog at 1 mg/kg; assay type: ADME, organism-based, Canis lupus familiaris; settings: in vivo
[17] = AUC in rat at 100 mg/kg; assay type: ADME, organism-based; design: dose 100 mg/kg; settings: in vivo

SMILES	Vdu [1]	half-life [2]	Vd [3]	Vdu [4]	clearance [5]	half-life [6]	Vd [7]	CL [8]	CL [9]	IC50 [10]	solubility [11]	clearance [12]	bioavailability [14]	Papp [15]	bioavailability [16]	AUC [17]	Ratio IC50 [13]
Cc1ncc(-c2nc3c(-c4cnc5c(c4)[C@](C)(N[C@H]4CCOC4)C(=O)N5)ncnc3n2C)cn1	0.3 L/kg	1.1 h	0.2 L/kg	3.1 L/kg	1.9 mL/min/kg	2 h	2.4 L/kg	240 mL/min/kg	3 mL/min/kg	8.2 µM	140 µM (≈ 64 µg/mL)	58 mL/min/kg	–	–	–	–	–
CCn1ncc(-c2nc3c(N4CCC(n5c(=O)[nH]c6ncccc65)CC4)ncnc3n2C)c1C	–	–	–	–	–	–	–	–	–	–	–	–	–	–	–	–	71
CCn1c(-c2cnc(C)nc2)nc2c(-c3ccc4c(c3)[C@](C)(N3CC(C)(OC)C3)C(=O)N4)ncnc21	6.5 L/kg	0.6 h	2.8 L/kg	6.3 L/kg	–	1.8 h	1.9 L/kg	–	–	–	120 µM (≈ 58.1 µg/mL)	–	28%	27 ×10⁻⁶ cm/s	–	–	–
CCn1c(-c2cnc(C)nc2)nc2c(-c3ccc4c(c3)[C@@]3(CCCN3C(C)C)C(=O)N4)ncnc21	11 L/kg	0.6 h	2.2 L/kg	14 L/kg	–	1 h	3.1 L/kg	–	–	–	56 µM (≈ 26.2 µg/mL)	–	–	–	–	–	–
CCn1ncc(-c2nc3c(-c4ccc5c(c4)[C@](C)(CC4CC4)C(=O)N5)ncnc3n2C)c1C	–	–	–	–	–	–	–	–	–	0.017 µM	–	–	–	–	–	–	–
CCn1c(-c2cnc(C)nc2)nc2c(-c3cnc4c(c3)[C@](C)(NCC(C)(C)F)C(=O)N4)ncnc21	3.3 L/kg	2.5 h	1.4 L/kg	5 L/kg	2.5 mL/min/kg	9.3 h	2.4 L/kg	29 mL/min/kg	6 mL/min/kg	–	115 µM (≈ 54.7 µg/mL)	12 mL/min/kg	61%	24 ×10⁻⁶ cm/s	100%	390 µM·h	–
CCn1c(-c2cnc(C)nc2)nc2c(-c3cnc4c(c3)[C@](C)(N[C@H]3CCOC3)C(=O)N4)ncnc21	1.6 L/kg	3 h	1.2 L/kg	4.9 L/kg	–	3.4 h	3.8 L/kg	–	–	> 10 µM	150 µM (≈ 70.7 µg/mL)	–	33%	5.7 ×10⁻⁶ cm/s	91%	–	–
CCn1c(-c2cnc(C)nc2)nc2c(-c3cnc4c(c3)[C@](C)(NC3CCC3)C(=O)N4)ncnc21	–	3 h	–	3.1 L/kg	–	–	2.1 L/kg	–	–	–	140 µM (≈ 63.8 µg/mL)	–	–	25 ×10⁻⁶ cm/s	–	–	–
CCn1c(-c2cnc(C)nc2)nc2c(-c3cnc4c(c3)[C@](C)(N3CC(C)(OC)C3)C(=O)N4)ncnc21	2.1 L/kg	2.8 h	1.3 L/kg	3.3 L/kg	7.4 mL/min/kg	2 h	1.7 L/kg	18 mL/min/kg	16 mL/min/kg	–	160 µM (≈ 77.7 µg/mL)	8.1 mL/min/kg	–	24 ×10⁻⁶ cm/s	–	–	–
CCn1c(-c2cnc(C)nc2)nc2c(-c3ccc4c(c3)[C@](C)(NCC(C)(F)F)C(=O)N4)ncnc21	3.9 L/kg	1.9 h	1.7 L/kg	6.9 L/kg	–	1.1 h	3.3 L/kg	–	–	–	120 µM (≈ 57.4 µg/mL)	–	–	–	–	–	–

Further lines, with some results ahead:

Vdu [1]	half-life [2]	Vd [3]	Vdu [4]	clearance [5]	half-life [6]	Vd [7]	CL [8]	CL [9]	IC50 [10]	solubility [11]	clearance [12]	bioavailability [14]	Papp [15]	bioavailability [16]	AUC [17]	SMILES	Ratio IC50 [13]
–	–	–	–	–	–	–	–	–	3.1 µM	–	–	–	–	–	–	Cn1cnc2c(-c3ccc4c(c3)[C@](C)(CC3CC3)C(=O)N4)ncnc21	–
2.7 L/kg	0.6 h	1.4 L/kg	4.6 L/kg	9.6 mL/min/kg	1.3 h	1.9 L/kg	290 mL/min/kg	27 mL/min/kg	10 µM	130 µM (≈ 62.5 µg/mL)	49 mL/min/kg	–	9 ×10⁻⁶ cm/s	–	–	Cc1ncc(-c2nc3c(-c4ccc5c(c4)[C@@]4(CCCN4C(=O)C4CC4)C(=O)N5)ncnc3n2C)cn1	–
3.8 L/kg	0.5 h	1.5 L/kg	5.5 L/kg	–	0.5 h	1.9 L/kg	–	–	–	34 µM (≈ 16.8 µg/mL)	–	10%	10 ×10⁻⁶ cm/s	78%	–	CCn1c(-c2cnc(C)nc2)nc2c(-c3ccc4c(c3)[C@@]3(CCCN3C(=O)C3CC3)C(=O)N4)ncnc21	–
–	0.6 h	–	7.3 L/kg	–	–	2.4 L/kg	930 mL/min/kg	–	–	130 µM (≈ 59.1 µg/mL)	66 mL/min/kg	–	30 ×10⁻⁶ cm/s	–	–	CCn1c(-c2cnc(C)nc2)nc2c(-c3ccc4c(c3)[C@](C)(NC3CCC3)C(=O)N4)ncnc21	–
3.5 L/kg	1 h	1.7 L/kg	6 L/kg	24 mL/min/kg	1 h	2.4 L/kg	99 mL/min/kg	250 mL/min/kg	–	–	27 mL/min/kg	–	–	–	–	CCn1c(-c2cnc(C)nc2)nc2c(-c3ccc4c(c3)[C@](C)(CC3CCO3)C(=O)N4)ncnc21 (some centres not stated)	–
6.5 L/kg	1.4 h	4.2 L/kg	6.5 L/kg	32 mL/min/kg	1.6 h	3.7 L/kg	160 mL/min/kg	–	–	180 µM (≈ 84.7 µg/mL)	44 mL/min/kg	14%	14 ×10⁻⁶ cm/s	–	–	CCn1c(-c2cnc(C)nc2)nc2c(-c3ccc4c(c3)[C@](C)(N[C@H]3CCOC3)C(=O)N4)ncnc21	–
8.7 L/kg	1.6 h	2.9 L/kg	6.3 L/kg	39 mL/min/kg	1.4 h	3 L/kg	89 mL/min/kg	–	–	130 µM (≈ 61.7 µg/mL)	28 mL/min/kg	58%	27 ×10⁻⁶ cm/s	25%	–	CCn1c(-c2cnc(C)nc2)nc2c(-c3ccc4c(c3)[C@](C)(NCC(C)(C)F)C(=O)N4)ncnc21	–
1 L/kg	1.1 h	0.5 L/kg	3.8 L/kg	–	3 h	0.7 L/kg	–	–	8.5 µM	130 µM (≈ 66.1 µg/mL)	–	57%	32 ×10⁻⁶ cm/s	99%	–	CCn1c(-c2cnc(C)nc2)nc2c(-c3ccc4c(c3)[C@@]3(CCCN3C(=O)C3CC3)C(=O)N4C)ncnc21	–
